Experimental data taken from publication PMC11123961, “Design, Synthesis, and Biological Evaluation of the Quorum-Sensing Inhibitors of Pseudomonas aeruginosa PAO1” (Molecules, 2024).

Columns and labels:
P. aeruginosa PAO1 = test: Growth activity of PAO1 (OD600 growth curve); assay type: cell-based, Pseudomonas aeruginosa; conditions: 162.50, 81.25 and 40.00 μM, OD600 over 24 h
Experimental: 3.2.4. The Growth of the Compound of PAO1 QS Activity Analysis
P. aeruginosa PAO1 in log phase was diluted to OD600 = 0.05 in fresh LB medium. Then, 98 μL of diluted bacterial solution and 2 μL of Y-31 solution were added to the 96-well plate. The final concentration of Y-31 in each well was 162.50 μM, 81.25 μM, and 40.00 μM, respectively. The pores without the compound Y-31 were used as blank controls. The cells were incubated in an incubator at 37 °C for 24 h, and OD600 was measured at 0 h, 2 h, 4 h, 6 h, 8 h, 10 h, 12 h, and 24 h, respectively.

[1] = tested on: P. aeruginosa PAO1 pyocyanin; test: Pyocyanin quantification assay; assay type: cell-based, Pseudomonas aeruginosa
Experimental: The method used to perform the pyocyanin quantification assay was previously reported. In short, P. aeruginosa PAO1 was cultivated in LB medium to reach the logarithmic growth phase at 37 °C and 150 rpm. Following this, the medium (2% peptone, 1% K2SO4, 0.3% MgCl2) was diluted 10 times. A 5 mL bacterial culture containing and excluding the compound (162.5 μM, 81.25 μM, and 20 μM) was incubated for 16 h at 37 °C at 150 rpm. The culture was centrifuged at 1665 g for 10 min in order to extract pyocyanin. The supernatant was then collected and extracted using 3 mL of chloroform. The upper aqueous phase was then collected via centrifugation at 1665 g for 10 min after 1 mL of 0.2 M HCl was combined with the chloroform layer. Absorbance was measured at 520 nm. The pyocyanin inhibition rate was calculated as follows = (OD520 blank − OD520 sample)/OD520 blank × 100%.

[2] = tested on: wildtype Caenorhabditis elegans N2 infected with P. aeruginosa PAO1; test: C. elegans survival assay; assay type: in vivo
From the text: 3.2.7. C. elegans Survival Assay
The negative control was the PGS agar plate coated with E. Coli OP50. Next, 50 wildtype C. elegans N2 strain-synchronized nematodes (L4 stage) were chosen and placed onto the plates. […] When the nematodes in the study were immobile, they were deemed dead. The number of nematodes that survived was tabulated to generate a survival curve.

RAW 264.7 cells = test: Cytotoxicity test, CCK8; assay type: cell-based, mouse; conditions: 162.50, 81.25 and 40.00 μM, 12 h
Experimental: The cell line used in this study was mouse mononuclear macrophage leukemia cell RAW 264.7. The cells were cultured in DMEM complete medium (basal medium containing 10% fetal bovine serum, 100 U/mL penicillin, and […] streptomycin) at 37 °C in a 5% CO2 incubator. When the cells covered 80% of the bottom of the plate, they were passaged more than three times.
Adherent RAW 264.7 cells were digested to detach the cells. Digestion was stopped via the addition of PBS and centrifuging at 1000 rpm for 5 min. The supernatant was discarded, and the cells were resuspended in 1 mL of medium for cell counting. Based on the counting results, the cell suspension was diluted. Then, 100 μL of the diluted cell suspension was added to a 96-well plate, with approximately 1 × 10^4 cells per well. The cells were then placed in the incubator to allow for adherence.
One well without cells received 100 μL of complete medium as a blank control, and one well with cells received 100 μL of complete medium as a negative control. […]
After incubation, the medium was removed, and 100 μL of 10% CCK8 solution was added to each well. The absorbance at 450 nm (OD450) was measured at 0.5 h, 1 h, and 2 h until OD450 = 1.
Cell viability was calculated using the following formula: cell activity = (OD450 compound − OD450 blank)/(OD450 negative control − OD450 blank) x 100%

[3] = tested on: P. aeruginosa PAO1 elastase; test: Elastase quantification (EnzCheck Elastase Assay Kit); assay type: cell-based, Pseudomonas aeruginosa
Experimental: The method previously described was used to perform the elastase quantification experiment. In LB medium, P. aeruginosa PAO1 was cultivated until the logarithmic growth phase at 37 °C and 150 rpm. […] Elastase activity was detected using the EnzCheckTM Elastase Assay Kit after filtration with a 0.22 μm filter membrane.

[4] = tested on: P. aeruginosa PAO1 rhamnolipid; test: Rhamnolipid quantification assay (orcinol); assay type: cell-based, Pseudomonas aeruginosa
Experimental: The rhamnolipid quantification assay was as follows: sulfuric acid–orcinol concentrated solution was used to examine the compound’s impact on P. aeruginosa PAO1 rhamnolipid. Initially, 50 μg/mL, 100 μg/mL, 200 μg/mL, and 400 μg/mL of a prepared solution of rhamnose standard at a concentration of 1 mg/mL in tilled water were diluted. Subsequently, 900 μL of 0.19% orcinol-concentrated sulfuric acid solution (0.19% orcinol (w/v), 50% H2SO4) was mixed with 100 μL of each concentration of rhamnose standard solution, and the mixture was incubated for 30 min at 80 °C in a water bath. After cooling to 25 °C, the OD value at 421 nm was measured. A standard curve of rhamnose concentration–absorbance values was established using Excel software 2019.
After cultivating P. aeruginosa PAO1 in LB medium for a logarithmic growth phase at 37 °C and 150 rpm, the bacterial culture was diluted with PPGAS solution (20 mM KCl, 20 mM NH4Cl, 0.5% glucose, 1.6 mM MgSO4, 120 mM Tris-HCl, and 1.0% peptone) to OD600 = 0.05. […] After centrifuging the bacterial cultures for 10 min at 1665 g, the supernatants were gathered. After extracting the supernatants twice using ethyl acetate, the organic layers were gathered and allowed to dry out at room temperature overnight. After resuspending the solid product in deionized water, 100 μL was added to 900 μL of 0.19% orcinol in 50% H2SO4, and the mixture was incubated for 30 min at 80 °C in a water bath. After cooling to 25 °C, the OD value at 421 nm was measured. The rhamnolipid content in the sample was determined according to a rhamnose standard curve (rhamnolipid content = 2.5 × rhamnose content).

## O=C(CCCOc1ccc(I)cc1)NN1CCCOC1=O [Y-31]
P. aeruginosa PAO1
  Inhibition of the growth activity of PAO1: no significant inhibition
[1]; 162.5 μM
  Inhibition rate of pyocyanin: 22.5%
[1]; Pseudomonas aeruginosa, PAO1, read-out: Inhibition rate of pyocyanin, 40 μM
  inhibition at 40 µM: 10%
[1]; Pseudomonas aeruginosa, PAO1, read-out: Inhibition rate of pyocyanin, 81.5 μM
  inhibition at 81.5 µM: 17.1%
[1]; Pseudomonas aeruginosa, PAO1, read-out: Inhibition rate of pyocyanin, 162.5 μM
  inhibition at 162.5 µM: 22.5%
[2]; Y-31 162.5 μM + Tob 0.25 μg/mL
  Average survival rate of infected nematodes, Y-31 combined with Tob compared with Y-31 or Tob alone: significantly improved
[2]; after 48 h, agent alone: Y-31 162.5 μM, Tob 0.25 μg/mL
  Improvement of the survival rate of infected nematodes (average): 9.33%
RAW 264.7 cells
  Cytotoxicity towards RAW 264.7 cells (cell viability): did not exhibit significant cytotoxicity
[3]; 162.5 μM
  Inhibition rate of elastase: 22.7%
[3]; Pseudomonas aeruginosa, PAO1, read-out: Inhibition rate of elastase, 40 μM
  inhibition at 40 µM: 11.3%
[3]; Pseudomonas aeruginosa, PAO1, read-out: Inhibition rate of elastase, 81.5 μM
  inhibition at 81.5 µM: 20%
[3]; Pseudomonas aeruginosa, PAO1, read-out: Inhibition rate of elastase, 162.5 μM
  inhibition at 162.5 µM: 22.7%
[4]; 162.5 μM
  Inhibition rate of rhamnolipid: 6.1%
[4]; Pseudomonas aeruginosa, PAO1, read-out: Inhibition rate of rhamnolipid, 40 μM
  inhibition at 40 µM: 0.4%
[4]; Pseudomonas aeruginosa, PAO1, read-out: Inhibition rate of rhamnolipid, 81.5 μM
  inhibition at 81.5 µM: 5.8%
[4]; Pseudomonas aeruginosa, PAO1, read-out: Inhibition rate of rhamnolipid, 162.5 μM
  inhibition at 162.5 µM: 6.13%
